# From PubChem BioAssay (NCI)
#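 96-well plates; 48 h exposure; 5 concentrations. Endpoints by linear interpolation between flanking doses. Not reached: highest tested concentration assigned. The concentration for 50% growth inhibition is given as GI50. TGI is the concentration that stops growth completely.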
# Key:
# Assay in all cases: growth of human tumour cells (NCI), 48 h
# EKVX NSCLC = test system: EKVX NSCLC
# PC-3 prostate = test system: PC-3 prostate
# SN12C renal = test system: SN12C renal
# ACHN renal = test system: ACHN renal
# HS 578T breast = test system: HS 578T breast
# SF-268 CNS = test system: SF-268 CNS
# LOX IMVI melanoma = test system: LOX IMVI melanoma
# NCI/ADR-RES ovarian = test system: NCI/ADR-RES ovarian
# M14 melanoma = test system: M14 melanoma
# UO-31 renal = test system: UO-31 renal
# MDA-MB-435 = test system: MDA-MB-435
# OVCAR-4 ovarian = test system: OVCAR-4 ovarian
# T-47D breast = test system: T-47D breast
# OVCAR-5 ovarian = test system: OVCAR-5 ovarian
# IGROV1 ovarian = test system: IGROV1 ovarian
# NCI-H522 lung = test system: NCI-H522 lung
# SF-539 CNS = test system: SF-539 CNS
# HOP-62 NSCLC = test system: HOP-62 NSCLC
# TK-10 renal = test system: TK-10 renal
# OVCAR-8 ovarian = test system: OVCAR-8 ovarian
# UACC-257 melanoma = test system: UACC-257 melanoma
# SF-295 CNS = test system: SF-295 CNS
# BT-549 breast = test system: BT-549 breast
# SK-MEL-2 melanoma = test system: SK-MEL-2 melanoma
# NCI-H460 lung = test system: NCI-H460 lung
# SK-MEL-28 melanoma = test system: SK-MEL-28 melanoma
# 786-0 renal = test system: 786-0 renal
# SNB-75 CNS = test system: SNB-75 CNS
# A498 renal = test system: A498 renal
# RPMI-8226 leukemia = test system: RPMI-8226 leukemia
# SK-MEL-5 melanoma = test system: SK-MEL-5 melanoma
# UACC-62 melanoma = test system: UACC-62 melanoma
# HCT-116 colon = test system: HCT-116 colon
# CAKI-1 renal = test system: CAKI-1 renal
# SNB-19 CNS = test system: SNB-19 CNS
# DU-145 prostate = test system: DU-145 prostate
# RXF 393 renal = test system: RXF 393 renal
# COLO 205 colon = test system: COLO 205 colon
# NCI-H226 lung = test system: NCI-H226 lung
# SW-620 colon = test system: SW-620 colon
# HOP-92 NSCLC = test system: HOP-92 NSCLC
# SK-OV-3 ovarian = test system: SK-OV-3 ovarian
compound,measurement,setting,value
OC1CCN(CCCOc2c3ccccc3nc3c2oc2ccc(Cl)cc23)CC1,GI50,EKVX NSCLC,2410 nM
same,TGI,EKVX NSCLC,13200 nM
same,GI50,PC-3 prostate,1280 nM
same,TGI,PC-3 prostate,4040 nM
same,GI50,SN12C renal,883 nM
same,TGI,SN12C renal,17200 nM
same,GI50,ACHN renal,534 nM
same,TGI,ACHN renal,10300 nM
same,GI50,HS 578T breast,2280 nM
same,TGI,HS 578T breast,13400 nM
same,GI50,SF-268 CNS,1080 nM
same,TGI,SF-268 CNS,10000 nM
same,GI50,LOX IMVI melanoma,372 nM
same,TGI,LOX IMVI melanoma,1520 nM
same,GI50,NCI/ADR-RES ovarian,579 nM
same,TGI,NCI/ADR-RES ovarian,4910 nM
same,GI50,M14 melanoma,1450 nM
same,TGI,M14 melanoma,3690 nM
same,GI50,UO-31 renal,1230 nM
same,TGI,UO-31 renal,3290 nM
same,GI50,MDA-MB-435,1230 nM
same,TGI,MDA-MB-435,2560 nM
same,GI50,OVCAR-4 ovarian,1230 nM
same,TGI,OVCAR-4 ovarian,3660 nM
same,GI50,T-47D breast,3540 nM
same,TGI,T-47D breast,20700 nM
same,GI50,OVCAR-5 ovarian,1710 nM
same,TGI,OVCAR-5 ovarian,6040 nM
same,GI50,IGROV1 ovarian,1250 nM
same,TGI,IGROV1 ovarian,6280 nM
same,GI50,NCI-H522 lung,1110 nM
same,TGI,NCI-H522 lung,2730 nM
same,GI50,SF-539 CNS,1070 nM
same,TGI,SF-539 CNS,2300 nM
same,GI50,HOP-62 NSCLC,1740 nM
same,TGI,HOP-62 NSCLC,7570 nM
same,GI50,TK-10 renal,2750 nM
same,TGI,TK-10 renal,18300 nM
same,GI50,OVCAR-8 ovarian,991 nM
same,TGI,OVCAR-8 ovarian,11900 nM
same,GI50,UACC-257 melanoma,1750 nM
same,TGI,UACC-257 melanoma,3530 nM
same,GI50,SF-295 CNS,1490 nM
same,TGI,SF-295 CNS,6450 nM
same,GI50,BT-549 breast,3040 nM
same,TGI,BT-549 breast,10100 nM
same,GI50,SK-MEL-2 melanoma,2450 nM
same,TGI,SK-MEL-2 melanoma,5990 nM
same,GI50,NCI-H460 lung,440 nM
same,TGI,NCI-H460 lung,1850 nM
same,GI50,SK-MEL-28 melanoma,1640 nM
same,TGI,SK-MEL-28 melanoma,3100 nM
same,GI50,786-0 renal,1080 nM
same,TGI,786-0 renal,3610 nM
same,GI50,SNB-75 CNS,1970 nM
same,TGI,SNB-75 CNS,10900 nM
same,GI50,A498 renal,2530 nM
same,TGI,A498 renal,7590 nM
same,GI50,RPMI-8226 leukemia,1330 nM
same,TGI,RPMI-8226 leukemia,4030 nM
same,GI50,SK-MEL-5 melanoma,1780 nM
same,TGI,SK-MEL-5 melanoma,3250 nM
same,GI50,UACC-62 melanoma,1990 nM
same,TGI,UACC-62 melanoma,4820 nM
same,GI50,HCT-116 colon,414 nM
same,TGI,HCT-116 colon,2360 nM
same,GI50,CAKI-1 renal,710 nM
same,TGI,CAKI-1 renal,2290 nM
same,GI50,SNB-19 CNS,1400 nM
same,TGI,SNB-19 CNS,18200 nM
same,GI50,DU-145 prostate,1060 nM
same,TGI,DU-145 prostate,3570 nM
same,GI50,RXF 393 renal,1020 nM
same,TGI,RXF 393 renal,2310 nM
same,GI50,COLO 205 colon,755 nM
same,TGI,COLO 205 colon,2210 nM
same,GI50,NCI-H226 lung,1720 nM
same,TGI,NCI-H226 lung,3750 nM
same,GI50,SW-620 colon,444 nM
same,TGI,SW-620 colon,2090 nM
same,GI50,HOP-92 NSCLC,713 nM
same,TGI,HOP-92 NSCLC,5040 nM
same,GI50,SK-OV-3 ovarian,2420 nM
same,TGI,SK-OV-3 ovarian,7070 nM
